Reference: ChEMBL document CHEMBL3881525, “Analogs of dehydrophenylahistins and their therapeutic use” (2007)
The source made the active and inactive calls. No cut-off for these calls is given here.

Assays:
[1] = Antitumor activity against human A549 cells xenografted in nude mouse assessed as tumor growth inhibition at […], ip qd for 5 days relative to control; assay type: functional; settings: 120 h, read-out: TGI
[2] = Antitumor activity against human MCF7 cells xenografted in nude mouse assessed as tumor growth inhibition at 7.5 mg/kg, ip qd for 5 days relative to control; assay type: functional; settings: 120 h, read-out: TGI
[3] = Antitumor activity against human A549 cells xenografted in nude mouse assessed as tumor growth inhibition at 7.5 mg/kg, ip qd for 5 days relative to control; assay type: functional; settings: 120 h, read-out: TGI
[4] = Antitumor activity against human DU145 cells xenografted in nude mouse assessed as tumor growth inhibition at […], iv administered every third day measured on day 28 relative to control; assay type: functional; settings: DU-145, iv, 672 h, read-out: TGI
MCF7 [5] = assay: Potentiation of taxotere-induced antitumor activity against human MCF7 cells xenografted in nude mouse assessed as tumor growth inhibition at 7.5 mg/kg, ip qd for 4 days measured on day 7; assay type: functional, organism-based
MES-SA [6] = assay: Ratio of EC50 for taxol-resistant human MES-SA/DX5 cells expressing MDR1 mRNA and P-gp to EC50 for taxol-sensitive human MES-SA cells; assay type: functional
[7] = Antiproliferative activity against human taxol-sensitive MCF7 cells; assay type: functional, cell-based
MES-SA [8] = assay: Ratio of IC50 for taxol-sensitive human […] to IC50 for taxol-sensitive human […] pretreated with p-gp inhibitor cyclosporinA followed by compound addition; assay type: functional
HeLa [9] = assay: Effect on cell cycle progression in human HeLa cells assessed as reduction in 2N cells at 200 nM; assay type: functional, cell-based
[10] = Antitumor activity against mouse B16F10 cells allografted in nude mouse assessed as mean growth inhibition at 10 mg/kg, iv qd for 5 days relative to control; assay type: functional, B16-F10; set-up: scale not given: the % may be the effect or the level left
[11] = Antiproliferative activity against taxol-sensitive human MES-SA cells […]; assay type: functional, cell-based
[12] = Antiproliferative activity against taxol-resistant human MES-SA/Dx5 cells expressing MDR1 mRNA and P-gp pretreated with p-gp inhibitor cyclosporinA followed by compound addition; assay type: functional, cell-based
[13] = Antitumor activity against human MDA-MB-231 cells xenografted in nude mouse assessed as tumor growth inhibition at 7.5 mg/kg, ip qd for 5 days relative to control; assay type: functional; settings: MDA-MB-231, ip, 120 h, read-out: TGI
MES-SA [14] = assay: Ratio of IC50 for taxol-sensitive human […] to IC50 for taxol-resistant human MES-SA/DX5 cells expressing MDR1 mRNA and P-gp; assay type: functional
[15] = Cytotoxicity against human HT-29 cells assessed as reduction in cell viability measured after 48 hrs by resazurin dye-based fluorometric analysis; assay type: functional; settings: Homo sapiens, HT-29, 48 h
[16] = Antiproliferative activity against taxol-sensitive human MES-SA cells pretreated with p-gp inhibitor cyclosporinA followed by compound addition; assay type: functional, cell-based
[17] = Antiproliferative activity against taxol-resistant human MES-SA/Dx5 cells expressing MDR1 mRNA and P-gp; assay type: functional, cell-based
MCF7 [18] = assay: Ratio of IC50 for human taxol-sensitive MCF7 cells to IC50 for human taxol-resistant MCF7/ADR cells; assay type: functional
HeLa [19] = assay: Effect on cell cycle progression in human HeLa cells assessed as […] cells at 200 nM; assay type: functional, cell-based

| SMILES | inhibition in vivo at […] [1] | inhibition in vivo at 7.5 mg/kg [2] | inhibition in vivo at 7.5 mg/kg [3] | inhibition in vivo at […] [4] | TGI (MCF7 [5]) | Ratio EC50 (MES-SA [6]) | IC50 [7] | Ratio IC50 (MES-SA [8]) | Activity (HeLa [9]) | Activity [10] | EC50 [11] | IC50 [12] | inhibition in vivo at 7.5 mg/kg [13] | Ratio IC50 (MES-SA [14]) | EC50 [15] | EC50 [16] | IC50 [17] | Ratio IC50 (MCF7 [18]) | Activity (HeLa [19]) |
| --- | --- | --- | --- | --- | --- | --- | --- | --- | --- | --- | --- | --- | --- | --- | --- | --- | --- | --- | --- |
| CC(=O)O[C@@]12CO[C@@H]1C[C@H](O)[C@@]1(C)C(=O)[C@H](O)C3=C(C)[C@@H](OC(=O)[C@H](O)[C@@H](NC(=O)OC(C)(C)C)c4ccccc4)C[C@@](O)([C@@H](OC(=O)c4ccccc4)[C@H]21)C3(C)C [DOCETAXEL ANHYDROUS] | 26.1% | 12 to 58% | 26% | 44.8% | Active | – | – | – | – | – | – | – | – | – | – | – | – | – | – |
| CC(=O)O[C@H]1C(=O)[C@@]2(C)[C@H]([C@H](OC(=O)c3ccccc3)[C@]3(O)C[C@H](OC(=O)[C@H](O)[C@@H](NC(=O)c4ccccc4)c4ccccc4)C(C)=C1C3(C)C)[C@]1(OC(C)=O)CO[C@@H]1C[C@@H]2O [PACLITAXEL] | – | – | – | – | – | 417 | 2.6 nM | 0.4 - 0.6 | Active | 35% | 4.8 to 13 nM | 2 to 40 nM | 53% | >8 - 3000 | 16.2 nM | 2.8 to 18 nM | 100 to 24000 nM | >38 | Active |
